From patent publication US20150030566A1, “ANTIMICROBIAL PEPTIDE COMPOSITIONS FOR PLANTS” (Stellenbosch University, priority 2012, published 2015)
Read-outs that look alike come from different tables or passages of the source. Non-standard residues stand in square brackets, D forms with d. Residues, ends and D or L forms follow the SMILES beside them. No end group written: not given here. Orn = NCCC[C@H](N)C(=O)O

Experiments:
Botrytis cinerea = test: Microdilution broth assay; type: cell-based; set-up: MIC + SEM / MIC against B. cinerea in PDB (n): unit not given beside the values
Procedure: (§1) Microdilution broth and agar assays were used to assess the antifungal activity of the cyclic decapeptides in liquid media and on solid (gel) media, respectively.
(§2) The antibacterial activity of the tyrocidines and gramicidin S against all the bacteria tested was determined by the methods described by Du Toit E A and Rautenbach M (2000) J. Microbiol. Methods, 42, 159-165. The antifungal activity of the tyrocidines against all the […] tested was determined by the methods described by Troskie A M, Vlok N M and Rautenbach M (2012) J. Microbiol. Methods, 91, 551-558.

Fusarium solani = test: Microdilution broth assay; type: cell-based; set-up: MIC against F. solani in PDB (n): unit not given beside the values; conditions: for MIC against F. solani in PDB (n): potato dextrose broth (low salt PDB)
Procedure: as §1, §2

[1] = tested on: Cylindrocarpon and Campylocarpon spp; conditions: 13 fungicides evaluated; Halleen et al. 2007; cited from earlier work
black foot disease = conditions: field conditions; Halleen et al. 2007; cited from earlier work
[2] = potato dextrose broth (low salt PDB)

| Compound | MIC against B. cinerea in PDB (n) (Botrytis cinerea; [2]) | MIC against F. solani in PDB (n) (Fusarium solani) | further results |
| --- | --- | --- | --- |
| Cyclo-(VKLfP(W,f)NQY) (VKLFPWFNQY; HELM PEPTIDE1{V.K.L.[dF].P.W.[dF].N.Q.Y}$PEPTIDE1,PEPTIDE1,1:R1-10:R2$$$V2.0; SMILES CC(C)C[C@@H]1NC(=O)[C@H](CCCCN)NC(=O)[C@H](C(C)C)NC(=O)[C@H](Cc2ccc(O)cc2)NC(=O)[C@H](CCC(N)=O)NC(=O)[C@H](CC(N)=O)NC(=O)[C@@H](Cc2ccccc2)NC(=O)[C@H](Cc2c[nH]c3ccccc23)NC(=O)[C@@H]2CCCN2C(=O)[C@@H](Cc2ccccc2)NC1=O) [TrcB1/B1′] | 3.6 ± 0.1 (6) | 5.9 ± 0.6 (3) |  |
| CCCN(CCOc1c(Cl)cc(Cl)cc1Cl)C(=O)n1ccnc1.CCCN(CCOc1c(Cl)cc(Cl)cc1Cl)C(=O)n1ccnc1.CCCN(CCOc1c(Cl)cc(Cl)cc1Cl)C(=O)n1ccnc1.CCCN(CCOc1c(Cl)cc(Cl)cc1Cl)C(=O)n1ccnc1.[Cl][Mn][Cl] [prochloraz manganese chloride] |  |  | in vitro mycelial inhibition [1]: able to effectively reduce mycelial growth in all fungal strains tested; protection of propagation material against black foot disease (black foot disease): failed to protect propagation against black foot disease under field conditions |
| Cyclo-(VOLfP(W,f)NQY) (VXLFPWFNQY; HELM PEPTIDE1{V.[Orn].L.[dF].P.W.[dF].N.Q.Y}$PEPTIDE1,PEPTIDE1,1:R1-10:R2$$$V2.0; SMILES CC(C)C[C@@H]1NC(=O)[C@H](CCCN)NC(=O)[C@H](C(C)C)NC(=O)[C@H](Cc2ccc(O)cc2)NC(=O)[C@H](CCC(N)=O)NC(=O)[C@H](CC(N)=O)NC(=O)[C@@H](Cc2ccccc2)NC(=O)[C@H](Cc2c[nH]c3ccccc23)NC(=O)[C@@H]2CCCN2C(=O)[C@@H](Cc2ccccc2)NC1=O) [TrcB/B′] | 5.1 ± 1.0 (6) | 11 ± 4.0 (3) |  |
| Cyclo-(VKLfPFfNQY) (chain 1 VKL[dF]PF[dF]NQY; chain 2 VKL[dF]PF[dF]NQY; also: head-to-tail to a chain's N/C-terminus; listed as Bacillus aneurinolyticus) [TrcA1] | 4.1 ± 0.7 (6) | 7.9 ± 0.7 (3) |  |
| CC(C)C[C@@H]1NC(=O)[C@H](CCCN)NC(=O)[C@H](C(C)C)NC(=O)[C@H](Cc2ccc(O)cc2)NC(=O)[C@H](CCC(N)=O)NC(=O)[C@H](CC(N)=O)NC(=O)[C@@H](Cc2ccccc2)NC(=O)[C@H](Cc2ccccc2)NC(=O)C2CCCN2C(=O)[C@@H](Cc2ccccc2)NC1=O (some centres unmarked) [TrcA, Cyclo-(VOLfPFfNQY)] (HELM PEPTIDE1{F.[dF].N.Q.Y.V.[Orn].L.[dF].[O=C(C1CCCN1[*:1])[*:2]]}$PEPTIDE1,PEPTIDE1,1:R1-10:R2$$$V2.0) |  | 4.0 ± 0.4 (3) | MIC against B. cinerea in PDB (n) (Botrytis cinerea): 5.2 ± 0.6 (6) |
| Cyclo-(VOLfPFfNQF) (chain 1 V[Orn]L[dF]PF[dF]NQF; chain 2 V[Orn]L[dF]PF[dF]NQF; also: head-to-tail to a chain's N/C-terminus; listed as Bacillus aneurinolyticus) [PhcA] | 6.9 ± 1.4 (5) | 7.2 ± 1.0 (3) | loss of activity from PDB to YTSB (Botrytis cinerea; B. cinerea, PDB (low salt) vs YTSB (high salt)): ~2 fold; loss of activity from PDB to YTSB (Fusarium solani; F. solani, PDB (low salt) vs YTSB (high salt)): ~5 fold |
| Cyclo-(VOLfPWwNQY) (chain 1 V[Orn]L[dF]PW[dW]NQY; chain 2 V[Orn]L[dF]PW[dW]NQY; also: head-to-tail to a chain's N/C-terminus; listed as Bacillus aneurinolyticus) [TrcC] | 3.5 ± 0.2 (6) | 4.3 ± 0.4 (3) |  |
| C=CCOC(Cn1ccnc1)c1ccc(Cl)cc1Cl (centres unmarked) [imazalil] |  |  | in vitro mycelial inhibition [1]: able to effectively reduce mycelial growth in all fungal strains tested; protection of propagation material against black foot disease (black foot disease): failed to protect propagation against black foot disease under field conditions |
| Cyclo-(VOLfPWwNQW) (chain 1 V[Orn]L[dF]PW[dW]NQW; chain 2 V[Orn]L[dF]PW[dW]NQW; also: head-to-tail to a chain's N/C-terminus; listed as Bacillus aneurinolyticus) [TpcC] | 3.6 ± 0.2 (6) | 4.6 ± 0.9 (3) | decrease in activity from PDB to YTSB (Botrytis cinerea; B. cinerea, YTSB (high salt) vs PDB (low salt)): approximately twofold; decrease in activity from YTSB to PDB (Fusarium solani; F. solani, YTSB (high salt) vs PDB (low salt)): approximately twofold |
| CCCCNC(=O)n1c(NC(=O)OC)nc2ccccc21 [benomyl] |  |  | in vitro mycelial inhibition [1]: able to effectively reduce mycelial growth in all fungal strains tested; protection of propagation material against black foot disease (black foot disease): failed to protect propagation against black foot disease under field conditions |
| Cyclo-(VKLfPWwNQY) (chain 1 VKL[dF]PW[dW]NQY; chain 2 VKL[dF]PW[dW]NQY; also: head-to-tail to a chain's N/C-terminus; listed as Bacillus aneurinolyticus) [TrcC1] | 8.9 ± 1.5 (3) | 32 ± 2.8 (3) |  |
